According to US10995101B2, “2-oxo-thiazole derivatives as A2A inhibitors and compounds for use in the treatment of cancers” (iTeos Therapeutics SA, priority 2017, dated 2021):

Legend:
A2A receptor = A2A receptor (Homo sapiens, UniProt P29274); assay: Inhibition of cAMP production in HEK cells; type: cell-based; conditions: HEK-293 cells with A2A receptor
in vitro = conditions: human, Caco-2, pH 7.4
[1] = IC50 (nM) (3 nM NECA as agonist, 0.1% BSA), 3 nM NECA as agonist, 0.1% BSA
[2] = IC50 (nM) (5 μM Adenosine as agonist, 2.0% HSA), 5 μM Adenosine as agonist, 2.0% HSA
[3] = IC50 (nM) (5 nM NECA as agonist, 2% HSA), 5 nM NECA as agonist, 2% HSA

A2A receptor, sequence (P29274 whole entry): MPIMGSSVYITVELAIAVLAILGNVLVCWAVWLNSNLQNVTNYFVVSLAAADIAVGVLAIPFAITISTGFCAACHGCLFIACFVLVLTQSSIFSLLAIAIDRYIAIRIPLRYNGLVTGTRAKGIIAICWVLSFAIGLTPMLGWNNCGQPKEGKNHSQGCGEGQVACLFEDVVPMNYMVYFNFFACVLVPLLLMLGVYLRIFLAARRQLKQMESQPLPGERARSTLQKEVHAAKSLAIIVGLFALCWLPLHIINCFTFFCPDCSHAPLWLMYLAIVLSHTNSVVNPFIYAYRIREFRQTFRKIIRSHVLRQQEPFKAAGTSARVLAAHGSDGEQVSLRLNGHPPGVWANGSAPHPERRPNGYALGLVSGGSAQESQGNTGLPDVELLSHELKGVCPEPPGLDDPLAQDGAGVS

Row | Structure (SMILES) | IC50 (A2A receptor; [1]) [nM] | IC50 (A2A receptor; [2]) [nM] | efflux ratio at 120 min, 2 μM (in vitro) | IC50 (A2A receptor; [3]) [nM]
1 | Nc1nc2c(sc(=O)n2CCN2CCN(c3ccc(O[C@@H]4COC[C@H]4O)cc3F)CC2)c2nc(-c3ccco3)nn12 [Compound 83, 5-amino-3-(2-(4-(2-fluoro-4-(((3R,4R)-4-hydroxytetrahydrofuran-3-yl)oxy)phenyl)piperazin-1-yl)ethyl)-8-(furan-2-yl)thiazolo[5,4-e][1,2,4]triazolo[1,5-c]pyrimidin-2(3H)-one] | 0.4 | 212 | 29 | –
2 | C[S@@+]([O-])c1ccc(N2CCN(CCn3c(=O)sc4c3nc(N)n3nc(-c5ccco5)nc43)CC2)c(F)c1 (single isomer, unassigned) [Compound 119] | 0.4 | 183 | 31 | –
3 | Nc1nc2c(sc(=O)n2CCN2CCN(c3cc(OCC4COCCN4)c(F)cc3F)CC2)c2nc(-c3ccco3)nn12 (stereo not drawn) [Compound 90, 5-amino-3-(2-(4-(2,4-difluoro-5-(morpholin-3-ylmethoxy)phenyl)piperazin-1-yl)ethyl)-8-(furan-2-yl)thiazolo[5,4-e][1,2,4]triazolo[1,5-c]pyrimidin-2(3H)-one] | 5.7 | 24 | 86 | –
4 | C[S@@+]([O-])CCNC(=O)c1cc(N2CCN(CCn3c(=O)sc4c3nc(N)n3nc(-c5ccco5)nc43)CC2)c(F)cc1F [Compound 114, (R)-5-(4-(2-(5-amino-8-(furan-2-yl)-2-oxothiazolo[5,4-e][1,2,4]triazolo[1,5-c]pyrimidin-3(2H)-yl)ethyl)piperazin-1-yl)-2,4-difluoro-N-(2-(methylsulfinyl)ethyl)benzamide] | 0.3 | 80 | 403 | –
5 | CS(=O)(=O)CCOc1cc(N2CCN(CCn3c(=O)sc4c3nc(N)n3nc(-c5ccco5)nc43)CC2)c(F)cc1F [Compound 77, 5-amino-3-(2-(4-(2,4-difluoro-5-(2-(methylsulfonyl)ethoxy)phenyl)piperazin-1-yl)ethyl)-8-(furan-2-yl)thiazolo[5,4-e][1,2,4]triazolo[1,5-c]pyrimidin-2(3H)-one] | 0.5 | 158 | 43 | 3
6 | Nc1nc2c(sc(=O)n2CCN2CCN(c3ccc(O[C@H]4CC[S@@+]([O-])CC4)cc3F)CC2)c2nc(-c3ccco3)nn12 (single isomer, unassigned) [Compound 121, 5-amino-3-(2-(4-(2-fluoro-4-(((1s,4s)-1-oxidotetrahydro-2H-thiopyran-4-yl)oxy)phenyl)piperazin-1-yl)ethyl)-8-(furan-2-yl)thiazolo[5,4-e][1,2,4]triazolo[1,5-c]pyrimidin-2(3H)-one] | 0.8 | 232 | 90 | –
7 | Nc1nc2c(sc(=O)n2CCN2CCN(c3ccc(OCC(O)C(F)(F)F)cc3F)CC2)c2nc(-c3ccco3)nn12 (stereo not drawn) [Compound 87, 5-amino-3-(2-(4-(2-fluoro-4-(3,3,3-trifluoro-2-hydroxypropoxy)phenyl)piperazin-1-yl)ethyl)-8-(furan-2-yl)thiazolo[5,4-e][1,2,4]triazolo[1,5-c]pyrimidin-2(3H)-one] | 1.1 | 432 | 7 | –
8 | Nc1nc2c(sc(=O)n2CCN2CCN(c3ccc(N4CC[S+]([O-])CC4)cc3F)CC2)c2nc(-c3ccco3)nn12 [Compound 126, 5-amino-3-(2-(4-(2-fluoro-4-(1-oxidothiomorpholino)phenyl)piperazin-1-yl)ethyl)-8-(furan-2-yl)thiazolo[5,4-e][1,2,4]triazolo[1,5-c]pyrimidin-2(3H)-one] | 0.6 | 78 | 83 | –
9 | Nc1nc2c(sc(=O)n2CCN2CCN(c3cc(OCC4CNCCO4)c(F)cc3F)CC2)c2nc(-c3ccco3)nn12 (stereo not drawn) [Compound 89, 5-amino-3-(2-(4-(2,4-difluoro-5-(morpholin-2-ylmethoxy)phenyl)piperazin-1-yl)ethyl)-8-(furan-2-yl)thiazolo[5,4-e][1,2,4]triazolo[1,5-c]pyrimidin-2(3H)-one] | 0.6 | 9 | 456 | –
10 | C[S@+]([O-])CCNC(=O)c1ccc(N2CCN(CCn3c(=O)sc4c3nc(N)n3nc(-c5ccco5)nc43)CC2)c(F)c1 [Compound 123, (S)-4-(4-(2-(5-amino-8-(furan-2-yl)-2-oxothiazolo[5,4-e][1,2,4]triazolo[1,5-c]pyrimidin-3(2H)-yl)ethyl)piperazin-1-yl)-3-fluoro-N-(2-(methylsulfinyl)ethyl)benzamide] | 1.5 | 1440 | 120 | –
11 | CC(C)[C@H](N)C(=O)NCCOc1ccc(N2CCN(CCn3c(=O)sc4c3nc(N)n3nc(-c5ccco5)nc43)CC2)c(F)c1 [Compound 72, (S)-2-amino-N-(2-(4-(4-(2-(5-amino-8-(furan-2-yl)-2-oxothiazolo[5,4-e][1,2,4]triazolo[1,5-c]pyrimidin-3(2H)-yl)ethyl)piperazin-1-yl)-3-fluorophenoxy)ethyl)-3-methylbutanamide] | 1 | 86 | 21 | 3
12 | Cn1cnc(COc2ccc(N3CCN(CCn4c(=O)sc5c4nc(N)n4nc(-c6ccco6)nc54)CC3)c(F)c2)n1 [Compound 67, 5-amino-3-(2-(4-(2-fluoro-4-((1-methyl-1H-1,2,4-triazol-3-yl)methoxy)phenyl)piperazin-1-yl)ethyl)-8-(furan-2-yl)thiazolo[5,4-e][1,2,4]triazolo[1,5-c]pyrimidin-2(3H)-one] | 0.6 | 378 | 15 | 9
13 | Nc1nc2c(sc(=O)n2CCN2CCN(c3ccc(O[C@H]4CC[S@+]([O-])CC4)cc3F)CC2)c2nc(-c3ccco3)nn12 (single isomer, unassigned) [Compound 122, 5-amino-3-(2-(4-(2-fluoro-4-(((1r,4r)-1-oxidotetrahydro-2H-thiopyran-4-yl)oxy)phenyl)piperazin-1-yl)ethyl)-8-(furan-2-yl)thiazolo[5,4-e][1,2,4]triazolo[1,5-c]pyrimidin-2(3H)-one] | 0.8 | 187 | 349 | –
14 | NCCNC(=O)c1ccc(N2CCN(CCn3c(=O)sc4c3nc(N)n3nc(-c5ccco5)nc43)CC2)c(F)c1 [Compound 30, 4-(4-(2-(5-amino-8-(furan-2-yl)-2-oxothiazolo[5,4-e][1,2,4]triazolo[1,5-c]pyrimidin-3(2H)-yl)ethyl)piperazin-1-yl)-N-(2-aminoethyl)-3-fluorobenzamide] | 0.4 | 42 | 3 | 1
15 | Nc1nc2c(sc(=O)n2CCN2CCN(c3ccc(C(=O)NCCNCCO)cc3F)CC2)c2nc(-c3ccco3)nn12 [Compound 70, 4-(4-(2-(5-amino-8-(furan-2-yl)-2-oxothiazolo[5,4-e][1,2,4]triazolo[1,5-c]pyrimidin-3(2H)-yl)ethyl)piperazin-1-yl)-3-fluoro-N-(2-((2-hydroxyethyl)amino)ethyl)benzamide] | 0.6 | 124 | 53 | 3
16 | Nc1nc2c(sc(=O)n2CCN2CCN(c3cc4c(cc3F)NC(=O)C4)CC2)c2nc(-c3ccco3)nn12 [Compound 79, 5-amino-3-(2-(4-(6-fluoro-2-oxoindolin-5-yl)piperazin-1-yl)ethyl)-8-(furan-2-yl)thiazolo[5,4-e][1,2,4]triazolo[1,5-c]pyrimidin-2(3H)-one] | 0.3 | 77 | 47 | –
17 | C[C@H](CN(C)C)NC(=O)c1ccc(N2CCN(CCn3c(=O)sc4c3nc(N)n3nc(-c5ccco5)nc43)CC2)c(F)c1 [Compound 57, (R)-4-(4-(2-(5-amino-8-(furan-2-yl)-2-oxothiazolo[5,4-e][1,2,4]triazolo[1,5-c]pyrimidin-3(2H)-yl)ethyl)piperazin-1-yl)-N-(1-(dimethylamino)propan-2-yl)-3-fluorobenzamide] | 0.2 | 56 | 2200 | 2
18 | CN(CC[S@@+](C)[O-])C(=O)c1cc(N2CCN(CCn3c(=O)sc4c3nc(N)n3nc(-c5ccco5)nc43)CC2)c(F)cc1F [Compound 116, (R)-5-(4-(2-(5-amino-8-(furan-2-yl)-2-oxothiazolo[5,4-e][1,2,4]triazolo[1,5-c]pyrimidin-3(2H)-yl)ethyl)piperazin-1-yl)-2,4-difluoro-N-methyl-N-(2-(methylsulfinyl)ethyl)benzamide] | 1.2 | 245 | 421 | –
19 | Nc1nc2c(sc(=O)n2CCN2CCN(c3cc(O[C@H]4CC[S@@+]([O-])CC4)c(F)cc3F)CC2)c2nc(-c3ccco3)nn12 [Compound 111, 5-amino-3-(2-(4-(2,4-difluoro-5-(((1s,4s)-1-oxidotetrahydro-2H-thiopyran-4-yl)oxy)phenyl)piperazin-1-yl)ethyl)-8-(furan-2-yl)thiazolo[5,4-e][1,2,4]triazolo[1,5-c]pyrimidin-2(3H)-one] | 0.6 | 91 | 583 | –
20 | Nc1nc2c(sc(=O)n2CCN2CCN(c3ccc(O[C@@H]4CNC[C@H]4F)cc3F)CC2)c2nc(-c3ccco3)nn12 [Compound 101, 5-amino-3-(2-(4-(2-fluoro-4-(((3R,4R)-4-fluoropyrrolidin-3-yl)oxy)phenyl)piperazin-1-yl)ethyl)-8-(furan-2-yl)thiazolo[5,4-e][1,2,4]triazolo[1,5-c]pyrimidin-2(3H)-one] | 0.7 | 124 | 81 | –
